Values quoted from earlier work, collected in patent US20200197416A1, “PHARMACEUTICAL COMPOSITION COMPRISING ABIRATERONE ACETATE AND DARULOTAMIDE” (NanGenex Nanotechnology Incorporated, priority 2017, published 2020).
Read-outs that look alike come from different tables or passages of the source.

Legend:
P-glycoprotein (P-gp) = P-glycoprotein (P-gp) (Homo sapiens, UniProt P08183)
[1] = for compound present in feces, % of the administered dose: oral 14C-abiraterone acetate
[2] = system: serum testosterone and other androgens; conditions: patients, placebo-controlled phase 3 clinical trial
[3] = not given; remark: listed apart in the source
[4] = not given; remark: listed apart in the source
[5] = not given; remark: listed apart in the source
[6] = system: human plasma proteins, albumin and alpha-1 acid glycoprotein
PSA levels = conditions: early phase clinical trials, Western mCRPC patients
AR = conditions: preclinical trials
[7] = in vivo
[8] = for geometric mean Cmax,md / median tmax.md: day 7
[9] = not given; remark: listed apart in the source
[10] = high-fat (57% fat, 825 calories) meal
[11] = low-fat meal (7% fat, 300 calories)
[12] = single dose of Abiraterone acetate, up to
[13] = 1,000 mg daily, patients with metastatic CRPC

Chain of P-glycoprotein (P-gp) (P08183 whole entry): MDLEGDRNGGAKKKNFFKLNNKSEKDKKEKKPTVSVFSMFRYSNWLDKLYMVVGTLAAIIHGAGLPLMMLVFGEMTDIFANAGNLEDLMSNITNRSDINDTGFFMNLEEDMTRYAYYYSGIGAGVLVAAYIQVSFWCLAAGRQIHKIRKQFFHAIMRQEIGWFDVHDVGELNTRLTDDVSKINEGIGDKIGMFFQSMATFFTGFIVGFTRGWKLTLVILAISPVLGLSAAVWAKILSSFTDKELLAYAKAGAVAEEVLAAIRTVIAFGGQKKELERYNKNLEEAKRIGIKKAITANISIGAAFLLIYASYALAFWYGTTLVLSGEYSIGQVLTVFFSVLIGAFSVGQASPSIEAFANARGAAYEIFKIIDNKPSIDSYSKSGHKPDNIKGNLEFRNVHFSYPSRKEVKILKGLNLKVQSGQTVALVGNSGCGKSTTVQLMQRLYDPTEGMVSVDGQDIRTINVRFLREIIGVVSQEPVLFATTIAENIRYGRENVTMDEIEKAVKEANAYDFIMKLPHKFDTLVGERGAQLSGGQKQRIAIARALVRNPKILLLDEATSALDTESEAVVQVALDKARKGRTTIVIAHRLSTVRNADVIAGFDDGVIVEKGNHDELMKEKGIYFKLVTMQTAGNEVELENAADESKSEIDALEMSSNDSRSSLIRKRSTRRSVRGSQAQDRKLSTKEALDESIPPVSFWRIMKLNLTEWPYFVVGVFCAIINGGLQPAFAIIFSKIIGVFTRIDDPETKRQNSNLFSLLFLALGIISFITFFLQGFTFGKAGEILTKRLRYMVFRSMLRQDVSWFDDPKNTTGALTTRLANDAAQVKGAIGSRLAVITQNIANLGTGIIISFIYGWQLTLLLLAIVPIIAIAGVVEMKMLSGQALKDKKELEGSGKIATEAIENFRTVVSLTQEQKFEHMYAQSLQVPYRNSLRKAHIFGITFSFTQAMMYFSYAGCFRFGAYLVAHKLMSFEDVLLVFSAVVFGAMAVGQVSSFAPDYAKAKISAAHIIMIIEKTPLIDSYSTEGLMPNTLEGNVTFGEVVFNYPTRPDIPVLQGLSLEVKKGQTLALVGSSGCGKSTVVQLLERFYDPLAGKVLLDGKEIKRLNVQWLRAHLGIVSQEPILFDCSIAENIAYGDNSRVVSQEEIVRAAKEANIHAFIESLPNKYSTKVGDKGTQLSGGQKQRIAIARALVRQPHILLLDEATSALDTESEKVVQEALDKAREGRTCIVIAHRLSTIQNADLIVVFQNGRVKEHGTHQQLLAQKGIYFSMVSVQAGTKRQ

CC(=O)O[C@H]1CC[C@@]2(C)C(=CC[C@@H]3[C@@H]2CC[C@]2(C)C(c4cccnc4)=CC[C@@H]32)C1 [Abiraterone acetate, (3β)-17-(3-pyridinyl) androsta-5,16-dien-3-yl acetate]
inhibition of P-gp (P-glycoprotein (P-gp); not told): inhibitor of P-gp | substrate of P-glycoprotein (P-gp) (P-glycoprotein (P-gp); not told): not substrates | compound present in feces, % of the administered dose [1]: approximately 55% | Abiraterone acetate plasma concentrations (clinical studies, below detectable levels in >99% of the analyzed samples): < 0.2 ng/mL | effect on serum testosterone and other androgens [2]: decreased | solubility in water [3]: practically insoluble | pKa of the aromatic nitrogen [4]: 5.19

C[C@]12CC[C@H](O)CC1=CC[C@@H]1[C@@H]2CC[C@]2(C)C(c3cccnc3)=CC[C@@H]12 [Abiraterone]
Abiraterone AUC0-28, fold higher with food [5, 10]: ~10 fold | Abiraterone Cmax, fold higher with food [5, 10]: approximately 17 fold | Abiraterone AUC0-28, fold higher with food [5, 11]: ~5 fold | Abiraterone Cmax, fold higher with food [5, 11]: approximately 7 fold | Abiraterone AUC0-28 (exposure) increase (food effect) [5, 12]: ≤ 10 fold | Abiraterone Cmax increase (food effect) [5, 12]: up to 17 fold | substrate of P-glycoprotein (P-gp) (P-glycoprotein (P-gp); in vitro, clinically relevant concentrations): not substrates | compound present in feces, % of the administered dose [1]: ~22% | bound to human plasma proteins [6]: > 99% | steady-state AUC (mean±SD) [13]: 993 ± 639 ng·h/mL | steady-state C. (mean±SD) [13]: 226 ± 178 ng/mL | increase in the mean AUC when dose doubled (dose doubled from 1,000 to 2,000 mg): 8% | apparent steady-state volume of distribution (mean±SD) (human, in vivo): 19,669±13,358 L | median time to reach maximum plasma Abiraterone concentrations (oral Abiraterone acetate, patients with metastatic CRPC): 2 h | mean terminal half-life of Abiraterone in plasma (mean±SD) (patients with metastatic CRPC): 12 ± 5 h | accumulation: steady-state AUC compared to a single 1,000 mg dose (steady-state vs single 1,000 mg dose of Abiraterone acetate): 2 fold

CC(O)c1cc(C(=O)N[C@@H](C)Cn2ccc(-c3ccc(C#N)c(Cl)c3)n2)n[nH]1 (stereo partly drawn) [Darolutamide]
PSA levels (PSA levels): significant reductions | binding affinity compared with other AR antagonists (such as bicalutamide and enzalutamide) (AR): higher binding affinity | blood-brain barrier penetration [7]: negligible | Cmax,md versus Cmax after single dose under fed conditions ([8]; 300 mg): approximately 1.8 times | geometric mean AUCtau(0-12)md ([8]; 300 mg BID): 44400 ng·h/mL | mean linearity factor (RLIN) ([8]; 300 mg BID): 0.910 | geometric mean Cmax,md ([8]; 300 mg BID): 4600 ng/mL | median tmax.md ([8]; 300 mg BID): 4.98 h | Cmax,md versus Cmax after single dose under fed conditions ([8]; 600 mg): ~1.7 times | geometric mean AUCtau(0-12)md ([8]; 600 mg BID): 58700 ng·h/mL | mean linearity factor (RLIN) ([8]; 600 mg BID): 0.961 | geometric mean Cmax,md ([8]; 600 mg BID): 5800 ng/mL | median tmax.md ([8]; 600 mg BID): 5.48 h | increase in exposure after multiple dosing with 600 mg BID versus 300 mg BID ([8]; in vivo): 1.3 fold | Cmax after single dose under fed conditions ([9]; 300 mg single dose, fed): 2590 ng/mL | Cmax after single dose under fed conditions ([9]; 600 mg single dose, fed): 3500 ng/mL | AUC(0-t last) fed state compared with fasting state ([9]; after 300 and 600 mg): 2.5 fold | bioavailability fed versus fasting conditions ([9]; single oral dose 300 mg): 2.5 fold | bioavailability fed versus fasting conditions ([9]; single oral dose 600 mg): 2.8 fold | overall median tmax ([9]; single-dose period): 3 to 6 h | terminal half-life ([9]; single-dose period): 10 to 15 h

C[C@]12CC[C@H](OS(=O)(=O)O)CC1=CC[C@@H]1[C@@H]2CC[C@]2(C)C(c3ccc[n+]([O-])c3)=CC[C@@H]12 [N-oxide Abiraterone sulphate]
share of exposure of circulating metabolite in human plasma ([1]; oral 14C-abiraterone acetate as capsules): about 43%

CC(=O)c1cc(C(=O)N[C@@H](C)Cn2ccc(-c3ccc(C#N)c(Cl)c3)n2)[nH]n1 [keto-Darolutamide]
exposure to metabolite keto-Darolutamide compared with Darolutamide ([9]; single dose 300 mg, fasting): 1.28 fold | exposure to metabolite keto-Darolutamide compared with Darolutamide ([9]; single dose 300 mg, fed): 1.33 fold | exposure to metabolite keto-Darolutamide compared with Darolutamide ([9]; single dose 600 mg, fasting): 1.44 fold | exposure to metabolite keto-Darolutamide compared with Darolutamide ([9]; single dose 600 mg, fed): 1.61 fold

(3β)-17-(3-pyridinyl) androsta-5,16-dien-3-yl acetate [Abiraterone acetate]
radioactive dose recovered in feces ([1]; oral administration): approximately 88% | radioactive dose recovered in urine ([1]; oral administration): approximately 5%
